The values below come from patent US4206215A, “Antimicrobial bis-[4-(substituted-amino)-1-pyridinium]alkanes” (Sterling Drug Inc., priority 1977, dated 1980).

Structures are written as SMILES.

Assay [1] concerns Ps. aerug. MGH-2. As to the kind of experiment: In vitro antibacterial activity, MIC (modified Autotiter method). Conditions: 18-20 hours at 37° C.; for MIC: Pseudomonas aeruginosa, 20 h, read-out: MIC Ps. aerug. MGH-2. The assay is classed as cell-based, Pseudomonas aeruginosa. On the procedure:
(§1) The antibacterial and antifungal activity of representative examples of the compounds of Formula I was determined using a modification of the Autotiter method described by Goss, et al. Applied Microbiology 16 (9) 1,414-1,416 (1968) in which a 1,000 mcg./ml. solution of the test compound is prepared. To the first cup of the Autotray is added 0.1 ml. of the test solution. Activation of the Autotiter initiates a sequence of operations by which 0.05 ml. of the test compound solution is withdrawn from the cup by a Microtiter transfer loop and diluted in 0.05 ml. of sterile water. Following this operation, 0.05 ml. of inoculated double-strength semisynthetic medium (glucose) is added automatically to each cup. The overall operation results in final drug concentrations ranging from 500 to 0.06 mcg./ml. in twofold decrements. […] The compounds were thus tested as solutions against a variety of gram positive and gram negative bacteria including Staphylococcus aureus, Proteus mirabilis, Escherichia coli, Klebsiella pneumoniae, Pseudomonas aeruginosa, Streptococcus pyogenes, and against such fungi as Aspergillus niger, Candida albicans and Trichophyton mentagrophytes.

For assay [2], the system named is K. pneum. 39645. The assay is described as above. The note with it: 18-20 hours at 37° C.; for MIC: Klebsiella pneumoniae, 20 h, read-out: MIC K. pneum. 39645. The assay is classed as cell-based, Klebsiella pneumoniae. On the procedure:
as §1

Assay [3] deals with S. Aureus Smith. The description is as above. It counts as cell-based, Staphylococcus aureus. The note with it: 18-20 hours at 37° C.; for MIC: Staphylococcus aureus, 20 h, read-out: MIC S. Aureus Smith. On the procedure:
as §1

Assay [4] concerns A. niger 16404. As to the kind of experiment: In vitro antifungal activity, MIC (modified Autotiter method). It counts as cell-based, Aspergillus niger. Conditions: 18-20 hours at 37° C.; for MIC: Aspergillus niger, 16404, 20 h, read-out: MIC A. niger 16404. How it is done: as §1
Assay [5] has as its system P. mirab. MGH-1. As to the kind of experiment: In vitro antibacterial activity, MIC (modified Autotiter method). The assay is classed as cell-based, Proteus mirabilis. The note with it: 18-20 hours at 37° C.; for MIC: Proteus mirabilis, 20 h, read-out: MIC P. mirab. MGH-1. How it is done:
as §1

Assay [6] has as its system S. pyogen. C203. The description is as above. It counts as cell-based, Streptococcus pyogenes. The note with it: 18-20 hours at 37° C.; for MIC: Streptococcus pyogenes, 20 h, read-out: MIC S. pyogen. C203. On the procedure:
as §1

Assay [7] relates to C. albicans 10231. Nature of the assay: In vitro antifungal activity, MIC (modified Autotiter method). The assay is classed as cell-based, Candida albicans. Conditions: 18-20 hours at 37° C.; for MIC: Candida albicans, 10231, 20 h, read-out: MIC C. albicans 10231. How it is done: as §1
Assay [8] concerns C. albicans Wisc. The description is as above. It counts as cell-based, Candida albicans. The note with it: 18-20 hours at 37° C.; for MIC: Candida albicans, 20 h, read-out: MIC C. albicans Wisc. On the procedure: as §1
Assay [9] concerns T. menta. 9129. The description is as above. The assay is classed as cell-based, Trichophyton mentagrophytes. The note with it: 18-20 hours at 37° C.; for MIC: Trichophyton mentagrophytes, 20 h, read-out: MIC T. menta. 9129. On the procedure: as §1
Assay [10] concerns E. coli AB1932-1. Nature of the assay: In vitro antibacterial activity, MIC (modified Autotiter method). The assay is classed as cell-based, Escherichia coli. The note with it: 18-20 hours at 37° C.; for MIC: Escherichia coli, AB19321, 20 h, read-out: MIC E. coli AB1932-1. How it is done:
as §1

Assay [11] deals with E. coli 100/B22. Described as above. The assay is classed as cell-based, Escherichia coli. Conditions: 18-20 hours at 37° C.; for MIC: Escherichia coli, 100/B22, 20 h, read-out: MIC E. coli 100/B22. On the procedure: as §1
Assay [12] relates to E. coli Vogel. Described as above. The assay is classed as cell-based, Escherichia coli. Conditions: 18-20 hours at 37° C.; for MIC: Escherichia coli, 20 h, read-out: MIC E. coli Vogel. How it is done:
as §1

For the compound `CCCCCCNc1cc[n+](CCCCCCCC[n+]2ccc(NCCCCCC)cc2)cc1` [Example 32, 1,8-bis-[4-(hexylamino)-1-pyridinium]octane dibromide], the MIC in assay [1] was 125 µg/mL; in assay [2], 7.8 µg/mL; in assay [3], 0.24 µg/mL; in [4], 7.8 µg/mL; in [5] it was more than 250 µg/mL; in [6], 0.49 µg/mL. The MIC turned out to be 3.9 µg/mL in [7]; 3.9 µg/mL in [8]; 7.8 µg/mL in assay [9]; 1.95 µg/mL in [10]; 3.9 µg/mL in assay [11]; 3.9 µg/mL in assay [12].
`CCCCCCCCCCCCNc1cc[n+](CCCCCCCCCC[n+]2ccc(NCCCCCCCCCCCC)cc2)cc1` [Example 74, 1,10-bis-[4-(dodecylamino)-1-pyridinium]decane dibromide]: the MIC is more than 62.5 µg/mL in assay [1]; more than 62.5 µg/mL in assay [2]; 15.6 µg/mL in assay [3]; more than 62.5 µg/mL in [4]; more than 62.5 µg/mL in assay [5]; 15.6 µg/mL in assay [6]. The MIC in [7] is more than 62.5 µg/mL; in assay [8] it was more than 62.5 µg/mL; in [9], 15.6 µg/mL; in assay [10], more than 62.5 µg/mL; in [11] it was more than 62.5 µg/mL; in assay [12], more than 62.5 µg/mL.
Turning to `CCCCCCCCCNc1cc[n+](CCCCCCCCCC[n+]2ccc(NCCCCCCCCC)cc2)cc1` [Example 51, 1,10-bis-[4-(nonylamino)-1-pyridinium]decane dibromide], the MIC in assay [1] is 3.9 µg/mL; in assay [2], 3.9 µg/mL; in [3] it was 1.95 µg/mL; in assay [4], 7.8 µg/mL; in [5], 3.9 µg/mL; in assay [6] it was 1.95 µg/mL. For the same compound, the MIC was determined as 3.9 µg/mL in assay [7]; 3.9 µg/mL in assay [8]; 1.95 µg/mL in [9]; 3.9 µg/mL in assay [10]; 3.9 µg/mL in assay [11]; 1.95 µg/mL in assay [12].
As to `Clc1ccc(Nc2cc[n+](CCCCCC[n+]3ccc(Nc4ccc(Cl)cc4)cc3)cc2)cc1` [Example 77B, 1,6-bis-[4-(p-chlorophenylamino)-1-pyridinium]hexane dimethanesulfonate], the MIC stood at 500 µg/mL in [1]; 500 µg/mL in assay [2]; 3.9 µg/mL in assay [3]; 62.5 µg/mL in assay [4]; 500 µg/mL in [5]; 1.95 µg/mL in assay [6]. The MIC in assay [7] is 62.5 µg/mL; in assay [8] it was 125 µg/mL; in [9] it was 15.6 µg/mL; in [10], 3.9 µg/mL; in [11] it was 15.6 µg/mL; in assay [12], 15.6 µg/mL.
Regarding `CCCCCCCCCNc1cc[n+](CCCCCCC[n+]2ccc(NCCCCCCCCC)cc2)cc1` [Example 49, 1,7-bis-[4-(nonylamino)-1-pyridinium]heptane dibromide], the MIC is 15.6 µg/mL in assay [1]; 1.95 µg/mL in assay [2]; 0.5 µg/mL in assay [3]; 7.8 µg/mL in assay [4]; 3.9 µg/mL in [5]; 1 µg/mL in assay [6]. The MIC in [7] stood at 1.95 µg/mL; in assay [8] it was 1.95 µg/mL; in assay [9], 1 µg/mL; in [10], 1.95 µg/mL; in assay [11] it was 1.95 µg/mL; in assay [12], 1 µg/mL.
`CCCCCCCCCCNc1cc[n+](CCCCCCCCCC[n+]2ccc(NCCCCCCCCCC)cc2)cc1` [Example 68, 1,10-bis-[4-(decylamino)-1-pyridinium]decane dibromide]: the MIC is 15.6 µg/mL in assay [1]; 31.3 µg/mL in assay [2]; 1.95 µg/mL in assay [3]; 15.6 µg/mL in assay [4]; 7.8 µg/mL in assay [5]; 3.9 µg/mL in assay [6]. For the same compound, the MIC came out at 15.6 µg/mL in assay [7]; 15.6 µg/mL in assay [8]; 3.9 µg/mL in [9]; 15.6 µg/mL in [10]; 15.6 µg/mL in assay [11]; 7.8 µg/mL in assay [12].
As for `c1c[n+](CCCCCCCC[n+]2ccc(NC3CCCCC3)cc2)ccc1NC1CCCCC1` [Example 38, 1,8-bis-[4-(cyclohexylamino)-1-pyridinium]octane dibromide], the MIC in assay [1] is 250 µg/mL; in assay [2] it was more than 125 µg/mL; in assay [3] it was 3.9 µg/mL; in assay [4] it was 15.6 µg/mL; in [5], more than 125 µg/mL; in assay [6] it was 0.93 µg/mL. The MIC worked out at 31.3 µg/mL in [7]; 31.3 µg/mL in assay [8]; 3.9 µg/mL in assay [9]; 31.3 µg/mL in [10]; 62.5 µg/mL in assay [11]; 62.5 µg/mL in [12].
With `CCCCCCCCCCNc1cc[n+](CCCCCCCCC[n+]2ccc(NCCCCCCCCCC)cc2)cc1` [Example 67, 1,9-bis-[4-(decylamino)-1-pyridinium]nonane dibromide], the MIC amounted to 7.8 µg/mL in [1]; 15.6 µg/mL in assay [2]; 1 µg/mL in assay [3]; 31.3 µg/mL in [4]; 7.8 µg/mL in assay [5]; 1.95 µg/mL in assay [6]. Further, the MIC in [7] came out at 31.3 µg/mL; in assay [8], 15.6 µg/mL; in assay [9] it was 3.9 µg/mL; in assay [10], 7.8 µg/mL; in assay [11], 3.9 µg/mL; in [12], 1.95 µg/mL.
Regarding `CCCCCCCCCNc1cc[n+](CCCCCC[n+]2ccc(NCCCCCCCCC)cc2)cc1` [Example 48], the “MIC Ps. aerug. MGH-2” value in [1] was 15.6 µg/mL. Moreover, the “MIC K. pneum. 39645” value in [2] is 3.9 µg/mL. Further, in [3], the “MIC S. Aureus Smith” value worked out at 1.0 µg/mL. Also, the “MIC A. niger 16404” value in [4] was found to be 3.9 µg/mL. For the same compound, in assay [5], the “MIC P. mirab. MGH-1” value was 7.8 µg/mL. The “MIC S. pyogen. C203” value in [6] turned out to be 1.0 µg/mL. The “MIC C. albicans 10231” value in assay [7] is 1.95 µg/mL. Also, in assay [8], the “MIC C. albicans Wisc.” value came out at 1.95 µg/mL. The “MIC T. menta. 9129” value in assay [9] is 1.0 µg/mL. Also, the “MIC E. coli AB1932-1” value in [10] amounted to 1.95 µg/mL. Also, in assay [11], the “MIC E. coli 100/B22” value was 1.95 µg/mL. The “MIC E. coli Vogel” value in assay [12] is 1.95 µg/mL.
For `CCCCCCCNc1cc[n+](CCCCCC[n+]2ccc(NCCCCCCC)cc2)cc1` [Example 62C, 1,6-bis-[4-(heptylamino)-1-pyridinium]hexane dichloride], the “MIC Ps. aerug. MGH-2” value in assay [1] was more than 62.5 µg/mL. Besides, the “MIC K. pneum. 39645” value in assay [2] was 3.9 µg/mL. Besides, the “MIC S. Aureus Smith” value in [3] is 0.24 µg/mL. Besides, in [4], the “MIC A. niger 16404” value is 7.8 µg/mL. Besides, the “MIC P. mirab. MGH-1” value in assay [5] is more than 125 µg/mL. Further, the “MIC S. pyogen. C203” value in assay [6] worked out at 0.98 µg/mL. In addition, the “MIC C. albicans 10231” value in assay [7] was 3.9 µg/mL. The “MIC C. albicans Wisc.” value in assay [8] came out at 3.9 µg/mL. Also, in assay [9], the “MIC T. menta. 9129” value is 3.9 µg/mL. Besides, the “MIC E. coli AB1932-1” value in [10] came to 1.95 µg/mL. The “MIC E. coli 100/B22” value in [11] turned out to be 1.95 µg/mL. The “MIC E. coli Vogel” value in [12] stood at 3.9 µg/mL.
Regarding `CCCCCCCCCCNc1cc[n+](CCCCCCC[n+]2ccc(NCCCCCCCCCC)cc2)cc1` [Example 65, 1,7-bis-[4-(decylamino)-1-pyridinium]heptane dibromide], the MIC in assay [1] came to 7.8 µg/mL; in assay [2] it was 7.8 µg/mL; in assay [3], 1 µg/mL; in assay [4], 7.8 µg/mL; in assay [5], 3.9 µg/mL; in [6], 1 µg/mL. Also, the MIC in assay [7] amounted to 15.6 µg/mL; in assay [8], 15.6 µg/mL; in [9], 1.95 µg/mL; in assay [10], 3.9 µg/mL; in assay [11], 3.9 µg/mL; in [12], 3.9 µg/mL.
